Measured values from US20170281676A1, “HIV-CURE” (Lupus Foundation of Gainesville, priority 2016, published 2017).
Read-outs that look alike come from different tables or passages of the source.

Assays:
HIV [1] = details: by denaturing their molecules; cited from earlier work
[2] = most animal species; cited from earlier work
[3] = tested on: Feline Immunodeficiency Virus (FIV); details: by denaturing their molecules; cited from earlier work
[4] = in vivo; cited from earlier work
[5] = humans exposed in workplace; cited from earlier work
[6] = water, alcohol, and organic solvents; cited from earlier work
[7] = mice, cited from earlier work
[8] = monkeys, 100 ppm for 2 years; cited from earlier work
HIV virus [9] = details: cited from earlier work
[10] = in vivo; cited from earlier work; remark: listed apart in the source
[11] = in vivo; cited from earlier work; remark: listed apart in the source
[12] = tested on: human macrophage hybridoma cell line and primary monocytes; details: ethanol equivalent to 115, 345 and 690 mg/dl, 16 hours, then infected with HIV-1; cited from earlier work
[13] = tested on: bloodstream catheter-related infections; details: injected preventively in central venous catheters; cited from earlier work
[14] = tested on: primary human brain microvascular endothelial cells; details: concentrations equivalent to 79 mg/dl and 237 mg/dl; cited from earlier work
HIV virus [15] = details: surfaces, 70% v/v ethanol, cited from earlier work
[16] = tested on: peripheral blood lymphocytes; details: concentrations 300-790 mg/dl; cited from earlier work
HIV-1 = details: cited from earlier work
[17] = in vivo; cited from earlier work; remark: listed apart in the source
[18] = human, in vivo
From the text: (§1) A person was brought to the emergency room by ambulance. The inventor was called to intubate for respiratory support. […] They were intubated with propofol and admitted to ICU. […] During the ICU stay, they were maintained in coma with propofol infusions and some opioid analgesics and muscle paralyzers, intubated and mechanically ventilated. Fluids given were mostly Ringer's lactate and dextrose 5% in water. Due to lack of history, the ICU staff assumed they were a chronic alcoholic. […] So, they treated the patient with ethanol infusion, trying to decrease the level slowly over days.

HIV [19] = details: HIV-positive person, 2 years after discharge; earlier viral load 60,000 copies per ml; never on antiretroviral medication
From the text: as §1

[20] = human, in vivo; remark: listed apart in the source

## CC(C)O [isopropanol]
HIV [1]
  inactivation of HIV in vitro: inactivate
[2]
  median lethal dose: 4000 mg/kg
[3]
  inactivation of FIV in vitro: inactivate
[4]
  serum elimination half-life: 2.5 to 8 h

## C1CO1 [ethylene oxide]
[5]
  mortality: no increase in mortality
[6]
  solubility: dissolves easily
[7]; 100 ppm for 2 years
  mortality: did not have increased mortality
[7]; exposure to 400 ppm for 14 days
  mortality: no death
[7]; higher levels like 800 ppm
  mortality: deadly in 4 hours
[8]
  mortality: did not have increased mortality

## CO [methanol]
HIV [1]
  inactivation of HIV in vitro: inactivate
[3]
  inactivation of FIV in vitro: inactivate

## OCCO [ethylene glycol]
HIV [1]
  inactivation of HIV in vitro: inactivate
[3]
  inactivation of FIV in vitro: inactivate

## CCO [ethanol]
HIV virus [9]; human albumin and plasma products at 18,000 mg/dl and higher
  damage to the product: no damage to the product was caused
HIV virus [9]; human albumin and plasma products, and even higher
  concentration used for in vitro inactivation of HIV virus: ≥ 18,000 mg/dl
HIV [1]
  inactivation of HIV in vitro: inactivate
[10]
  factor between breath and blood concentrations: around 2300
  rise of serum concentration after loading dose: about 100 mg/dL
[11]
  placental penetration: penetrates well the placenta
[12]
  effects in the immunogenic tests of the cells: immunosuppressive effects
[13]
  risk of bloodstream catheter-related infections: decrease the risk
[14]
  apoptosis induced by HIV-1 proteins: strongly potentiate
HIV virus [15]; in some conditions, up to
  time of contact needed for the inactivation of HIV virus: up to 4 minutes
HIV virus [15]
  time of contact needed for the inactivation of HIV virus: 2 min
[3]
  inactivation of FIV in vitro: inactivate
[16]
  HIV DNA in peripheral blood lymphocytes and their proliferation: increase
HIV-1; ethanol tested at 115, 345 and 690 mg/dl
  HIV-1 replication, another study: same results
HIV-1; human peripheral blood mononuclear cells, levels at the range of 400 mg/dl or less
  HIV-1 replication: increase the HIV-1 replication
[17]
  blood level at usual starting of a comatose state: 400 mg/dL
[18]
  permanent organ damage: without causing any permanent organ damage
HIV [19]
  HIV viral load: undetectable
[20]
  time to reach a level below 100 mg/dl: 16 to 20 h
